According to patent US6310040A, “Treating retinal neuronal disorders by the application of insulin-like growth factors and analogs” (Cephalon, Inc., priority 1992, dated 2001):
Like-named read-outs stand apart in the source and are kept apart here. Non-standard residues stand in square brackets, D forms with d. No end group written: not given here. Tyr(3,5-I2) = N[C@@H](Cc1cc(I)c(O)c(I)c1)C(=O)O

Tests used:
[1] = tested on: postnatal rat retinal neuronal cells; assay: calcein-AM survival assay, dissociated postnatal rat retinal neuronal cultures; assay type: cell-based; conditions: for fluorescence values (total number of cells surviving) versus untreated cultures: peptides 100 uM, postnatal rat retina; for fluorescence values (total number of cells surviving) versus untreated cultures / relative fluorescence units (total number of cells surviving) versus untreated control: 4 days; for relative fluorescence units (total number of cells surviving) versus untreated control: 100 nM, postnatal day 6 rat retina
Experimental: (§1) Retinas were dissected from embryonic chicks, dissociated by enzymatic digestion and cultured in vitro in defined insulin/serum-free medium according to Sato et al. (1979, Proc. Natl. Acad. Sci. USA 76:514-517). The number of cells in culture was measured using the vital stain calcein-AM. All cells are permeable to calcein-AM, but only live cells are capable of converting this compound into a fluorescent derivative detectable by ordinary methods. In the first experiment, calcein-AM (6 μM) was added to different cultures of retinal cells and the relationship between the level of fluorescence and the number of cells was determined.
To determine the concentration of IGF-I required to promote survival of pre- or postnatal retinal neurons in culture, the following experiments were carried out: Retinal neurons were prepared from dissociated retina obtained from 10 day old chick embryos, or from […] postnatal day 6 rats as described above. Cultures were incubated in the presence of increasing concentrations of IGF-I and the number of cells surviving at 48 hours post-treatment was measured in the calcein-AM assay. […] Based upon previously published data, the concentrations of IGF-I that promote neuronal cell survival in our experiments are consistent with the fact that IGF-I is acting through its own receptor (Karey et al., 1988, In Vitro Cell. Dev. Biol. 24:1107-1113; Ballard et al., 1988, Biochem. J. 249:721-726).
To determine whether retinal survival could be enhanced when incubated in the presence of functional derivatives of IGF-I and IGF-II, a linear fragment of IGF-II that is relatively conserved within both IGF-I and IGF-II, was tested in our assay. The fragment contained a sequence of 14 amino acids from IGF-II (amino acids 54-67, wherein the amino terminal amino acid of IGF-II is number 1).
To determine whether IGF-I, IGF-II, and IGF-III can promote the survival of retinal neuronal cells, dissociated cultures of postnatal rat retina were prepared and assayed for the total number of cells present after incubation in the presence or absence of IGFs. Retinas were dissected from postnatal day 6 rats, dissociated by enzymatic digestion and seeded at a density of 6.25×10^4 cells/cm^2 in defined insulin/serum-free media (Bottenstein et al., 1979, PNAS 76:514-517). These cultures are heterogenous, comprised of at least five independent retinal neuronal cell subpopulations, i.e., amacrine, bipolar, horizontal, photoreceptor and ganglion cells. Cultures were incubated in the presence or absence of 100 nM of each of the IGFs. The total number of cells remaining after 4 days was assayed by incubation with the vital stain calcein-AM at 6 uM. This compound is taken up by all cells but can only be converted to a fluorescent derivative by live cells.
To determine whether linear peptide derivatives of IGFs can support the survival of retinal neuronal cells, dissociated cultures of postnatal rat retina were prepared and assayed for the total number of cells present after incubation in the presence or absence of peptides (100 uM). Retinal neuronal cell cultures were prepared as described in Example 11 and the total number of cells surviving analyzed analogously. Peptides were derived from the amino acid regions 7-30 and 55-70 of IGF-I and […] and the region within IGF-II, amino acids 54-67.

[2] = tested on: photoreceptor subpopulation of cells; assay: Rho42 antibody fluorescence staining of postnatal rat retinal neuronal cultures; assay type: cell-based; conditions: 100 nM, 48 hours
Experimental: To determine whether IGF-I or IGF-II (54-67) could specifically promote survival of the photoreceptor subpopulation of cells in rat retinal neuronal cultures, the following experiments were carried out: The monoclonal antibody Rho42, which binds to an antigenic epitope within the extracellular domain of rhodopsin expressed on the surface of rod photoreceptor cells (Molday and MacKenzie, 1983, Biochemistry 22:653), was used in this assay. Postnatal rat retinal neuronal cultures were incubated in the presence or absence of 100 nM of IGF-I for 48 hours. Cells were harvested and reacted with Rho42 to which a fluorescent label had been added. Slides were prepared and the level of fluorescence in the cultures was qualitatively assessed using a fluorescence microscope.

retinal neuronal cells = assay: calcein-AM survival assay, dissociated embryonic chick retinal cultures; assay type: cell-based; conditions: 48 hours post-treatment
Experimental: To determine whether IGF-1 acts to promote survival of retinal neuronal cells, dissociated cultures of avian retina were prepared from animals at various developmental ages and the number of cells present in the cultures, following incubation for 48 hours in the presence or absence of IGF-I, was measured.
as §1
In the next experiment, IGF-I was added to half of the cultures at a final concentration of 100 nM, and the number of cells remaining at 48 hours post-treatment was measured using the calcein-AM assay described above. […]

retinal neurons = assay: retinal neurite regeneration, phase contrast microscopy; assay type: cell-based; conditions: 100 nM, 2-4 days following treatment, insulin/serum-free media
Experimental: To determine whether IGF-I affects retinal neurite regeneration, a population of neurons prepared from dissociated retina was cultured in defined insulin/serum-free media in the presence or absence of 100 nM IGF-I. Cultures were examined by phase contrast microscopy at 2-4 days following IGF-I treatment.

photoreceptor cells = assay type: cell-based, rat
Experimental: To quantitate this assay, we developed a cell-based Rho42 ELISA test as follows: Several postnatal rat retinal cultures containing different numbers of cells, were incubated for 2-4 days following which cultures were fixed and immunolabelled with either the Rho42 monoclonal antibody, or the nonspecific monoclonal antibody P3, secreted by the myeloma cell line P3X6Ag8. Antibody binding was detected using a secondary antibody labelled with horseradish peroxidase and a chromogenic substrate O-phenylenediamine (OPD), having a maximum absorption wavelength of 490 nm. The level of absorption of light at 490 nm measured in the cultures is therefore directly related to the amount of primary antibody that originally bound to the cells. In FIG. 8 it can be seen that there is a linear relationship between the level of absorption at 490 nm and the number of cells in each culture.
Next, rat retinal neuronal cultures were incubated in the presence of IGF-I or IGF-II (54-67) for 48 hours following which they were subjected to the cell-based ELISA test as described above. Both IGF-I and IGF-II (54-67) promoted the survival of photoreceptor cells by 20-30% compared with control untreated cultures.

CAPAKSE
fluorescence values (total number of cells surviving) versus untreated cultures [1]: higher fluorescence values than untreated cultures

IGF-II: Recombinant human insulin-like growth factor II, 67 amino acids, SEQ ID NO:16
relative fluorescence units (total number of cells surviving) versus untreated control [1]: higher than that found for untreated control cultures

YCAPA
fluorescence values (total number of cells surviving) versus untreated cultures [1]: higher fluorescence values than untreated cultures

CATPAKSE
fluorescence values (total number of cells surviving) versus untreated cultures [1]: higher fluorescence values than untreated cultures

EALLETYCATPAKSE
fluorescence values (total number of cells surviving) versus untreated cultures [1]: higher fluorescence values than untreated cultures

IGF-III: truncated form of IGF-I lacking the three N-terminal amino acid residues, SEQ ID NO:2
relative fluorescence units (total number of cells surviving) versus untreated control [1]: higher than that found for untreated control cultures

TYCAPA
fluorescence values (total number of cells surviving) versus untreated cultures [1]: higher fluorescence values than untreated cultures

IGF-I: Recombinant human insulin-like growth factor I (somatomedin C), 70 amino acids, SEQ ID NO:1
level of Rho42 fluorescence (photoreceptor survival), qualitative [2]: increased level of fluorescence compared to untreated cultures
relative fluorescence units (total number of cells surviving) versus untreated control [1]: higher than that found for untreated control cultures
survival of postnatal retinal neurons versus concentration ([1]; postnatal day 6 rats, increasing concentrations, 48 hours post-treatment): promote survival of retinal neurons in culture in a dose-dependent manner
enhanced survival of cells compared to control, untreated cultures (retinal neuronal cells; 100 nM, retinal cultures from embryos at 8, 10, 12 and 14 days of age): 20-60%
survival of prenatal retinal neurons versus concentration (retinal neuronal cells; 10 day old chick embryos, increasing concentrations): promote survival of retinal neurons in culture in a dose-dependent manner
cells with neurites (axonal regeneration) (retinal neurons): more cells with neurites than untreated control cultures
promoted survival of photoreceptor cells compared with control untreated cultures (photoreceptor cells; 48 hours, rat retinal neuronal cultures): 20-30%

TY(I2)CAPAKSE (T[Tyr(3,5-I2)]CAPAKSE) [iodinated TYCAPAKSE]
fluorescence values (total number of cells surviving) versus untreated cultures [1]: higher fluorescence values than untreated cultures

GAELVDALQFVSGDRGFYFNKPTG (GAELVDALQFYSGDRGFYFNKPTG)
fluorescence values (total number of cells surviving) versus untreated cultures [1]: higher fluorescence values than untreated cultures

CC(C)C[C@H](NC(=O)[C@H](C)N)C(=O)N[C@@H](CC(C)C)C(=O)N[C@@H](CCC(=O)O)C(=O)N[C@H](C(=O)N[C@@H](Cc1ccc(O)cc1)C(=O)N[C@@H](CS)C(=O)N[C@@H](C)C(=O)N[C@H](C(=O)N1CCC[C@H]1C(=O)N[C@@H](C)C(=O)N[C@@H](CCCCN)C(=O)N[C@@H](CO)C(=O)N[C@@H](CCC(=O)O)C(=O)O)[C@@H](C)O)[C@@H](C)O [IGF-II (54-67), ALLETYCATPAKSE]
promoted survival of photoreceptor cells compared with control untreated cultures (photoreceptor cells; 48 h): 20-30%
